# Like-named read-outs stand apart in the source and are kept apart here.
# Experiments:
# [1] = tested on: thymidylate synthase (TS); experiment: Evaluation of TS expression by Western blotting in H630-C6 cells; type: cell-based, human; details: H630-C6 cells, 18 hr treatment
# Procedure: FIGS. 4a and 4b. Evaluation of TS expression by Western blotting. […] The cells were harvested for Western blots.
# This example describes the relationship between TS levels and luciferase production by various known TS inhibitors. Western blotting was performed as previously described (Dolnick and Black, 1996). Briefly, H630-C6 cells were washed with PBS and extracted with RIPA buffer. 10 μg of total protein was resolved by electrophoresis in a 10% SDS-PAGE and was blotted onto a PVDF membrane (Immobilon-P, Millipore, Bedford, Mass.). The membrane was hybridized with rabbit polyclonal antibody against TS (a gift from Dr. Edward Chu, VA Cancer Center, Yale University, West Haven, Conn.) diluted in SuperBlock Blocking Buffer (Pierce, Rockford, Ill.) plus 0.25% Tween 20 for one hour and hybridized with HRP-linked anti-rabbit secondary antibody (Jackson Laboratories) for an additional one hour. The membrane was detected with SuperSignal West Dura Extended Duration Substrate (Pierce, Rockford, Ill.) and was visualized by exposing the blot to Kodak XAR-5 film. […] The resulting signal was detected as described above.
# The induction of luciferase activity depends upon the ability to reduce the amount of endogenous TS bound to the TBEs in the recombinant luciferase transcripts. Dissociation of TS from the luciferase reporter mRNA is expected to be accompanied by the removal of TS from TBEs located in other mRNAs as well, such as endogenous TS mRNA. Therefore, an increase in TS is expected to accompany the increase in luciferase. To verify whether a translational mechanism is involved we evaluated the levels of TS from cells treated with the compounds described above by Western blotting.
# [2] = tested on: thymidylate synthase (TS); experiment: Luciferase assay in stably transfected H630-C6 cells (pG3E1-2TBE-Neo); type: cell-based, human
# Procedure: FIGS. 3a-3j. RLU production in H630-C6 cells in response to TS inhibitors. H630-C6 cells were evaluated for luciferase activity in response to treatment with the indicated compounds. The cells were exposed to the compounds at the indicated concentrations for 18 hr and luciferase assays were then performed according to the manufacturer's instructions. The mean values of triplicates or quadruplicates are shown along with the standard derivations.
# This example describes the stable transfection of cells with the DNA construct of the present invention. To facilitate selection of stable transformants, we added a neomycin-resistance gene to the pG3E1-2TBE (FIG. 1) to generate a new plasmid termed pG3E1-2TBE-Neo as follows. For stable transfection, pG3E1-2TBE-Neo was linearized at the ampicillin resistance gene with Ase I and was introduced into H630 cells as described above. At 24 hrs post-transfection, the cells were exposed to 400 μg/ml of G418 for two weeks. Individual clones were picked at that time and screened for their ability to induce luciferase in response to treatment with 5-FU, a known TS inhibitor. Following selection with G418 and evaluation for changes in luciferase activity after exposure of the cells to 5-FU, the cloned subline H630/pG3E1-2TBE-Neo-L1-2-C6 (H630-C6) was chosen for further study.
# The stably transfected H630-C6 cell line was maintained in RPMI 1640 plus 10% dialyzed FBS and 400 μg/ml of geneticin (G418). For luciferase assays, 2×10^4 cells were seeded in each well of a 24-well plate in RPMI 1640 medium plus 10% FBS without G418 and were allowed to attach at least six hr, followed by drug exposure overnight (approximately 18 hr). The cells were then washed with PBS (137 mM NaCl, 2.7 mM KCl, 4.3 mM Na2HPO4, 1.4 mM KH2PO4, pH 7.4), lysed with Passive Lysis Buffer (Promega, Madison) and assayed for luciferase activity using the Luciferase Assay System (Promega, Madison, Wis.) according to the manufacturer's instructions. Relative light units (RLU) were measured with a Lumat LB 9501 luminometer (EG & G Berthold, Wildbad, Germany).
# To test H630-C6 as a tool to identify TS modulators three different classes of compounds, i.e., specific or predominantly specific TS inhibitors, agents that inhibit folate pathways or inhibit TS as well as having other targets, and agents that act through TS unrelated sites of action were evaluated for their ability to induce changes in luciferase activity.
# [3] = tested on: thymidylate synthase (TS); experiment: Down-regulation of TS in H630 cells treated with acyl-homoserine lactones (Western blotting); type: cell-based, human; details: overnight (approximately 16 hours)
# Text: FIG. 6. A representation of the ability of acyl homoserine lactones to down-regulate TS in H630 cells.
# The signaling molecules produced by the rTS signaling pathway cause a decrease in the amount of TS found in cells. These signaling molecules can simulate the effects of the compound 3-oxo-hexanoyl homoserine lactone in activating the receptor for this compound when it is present in a recombinant bacteria. […] This hypothesis was validated by the results of an experiment portrayed in FIG. 6. Accordingly, the down-regulation of TS in H630 (human colon cancer) cells treated with acyl-homoserine lactones was tested. Cells growing in RPMI 1640 culture medium, supplemented with 10% dialyzed fetal bovine serum at 37° C. in an atmosphere of 95:5 air:CO2. The compounds with the structures shown were added to the cells and allowed to incubate overnight (approximately 16 hours). The cells were extracted and TS measured by Western blotting as described. The compounds from top to bottom are: (1) 3-hydroxy butanoyl homoserine lactone, (2) butanoyl homoserine lactone; (3) 3-oxo-hexanoyl homoserine lactone; (4) d, 1-hexanoyl homoserine lactone, and (5) 1-homoserine lactone. Tubulin is shown as a loading standard.
# [4] = tested on: thymidylate synthase (TS); experiment: Multiwell luciferase assay in RKO colon tumor cell lines containing pG3E1-2TBE-Neo; details: for % C (effect relative to control without 5-FU), RKO clone 1 / % C (effect relative to control without 5-FU), RKO clone 4 / % C (effect relative to control without 5-FU), RKO clone 7 / RLU RKO clone 1 / RLU RKO clone 4 / RLU RKO clone 7: approximately 18 hr
# [5] = tested on: thymidylate synthase (TS); experiment: Luciferase assay in H630 cells transiently transfected with pG3E1-2TBE; type: cell-based, human; details: 5-FU 10 μM for 24 hr; H630 cells transfected with pG3E1-2TBE
# Procedure: FIGS. 2a-2c. Activity of the EGR-I promoter and TBEs in pGL3-basic plasmid. FIG. 2a—the EGR-I promoter was added upstream of the luciferase reporter gene of pGL3-basic plasmid as described in Example 1. The resultant construct pG3E1 was transfected into H630 cells and the luciferase assay was performed 24 hr later. Control: mock transfection; pG3E1: 5 μg of pG3E1 plasmid DNA per 2×10^6 cells was used for transfection. RLU: relative light units. In FIGS. 2b and 2c, TS-binding elements were synthesized and added into pG3E1. The pG3E1-2TBE (5 μg) was transfected into six replicate aliquots of H630 cells (2×10^6) and plated separately. After 24 hr, three of transfected samples were treated with 5-FU (10 μM) for an additional 24 hr (FIG. 2c), the cells were then processed for the luciferase assay according to the manufacturer's instructions. Control: mock transfection; pG3E1: transfected with pG3E1; pG3E1+T: transfected with pG3E1-2TBE only (FIG. 2b). P+T+FU: transfected with pG3E1-2TBE and 24 hr following transfection treated with 5-FU (FIG. 2c). Data are the average of triplicate experiments±S.D.
# This example describes the transient transfection of cells with the construct of the present invention. […]
smiles,measurement,setting,value
"CN[C@@H]1[C@@H](O)[C@@H](O[C@@H]2[C@@H](O)[C@H](O[C@H]3O[C@H]([C@@H](C)O)[C@@H](O)[C@H](O)[C@H]3N)[C@@H](N)C[C@H]2N)OC[C@]1(C)O [G418, geneticin]",TS protein level by Western blotting,[1],inactive
"CN(Cc1cnc2nc(N)nc(N)c2n1)c1ccc(C(=O)N[C@@H](CCC(=O)O)C(=O)O)cc1 [MTX, methotrexate]","change in luciferase activity (RLU), in words",[2],increases in luciferase that were comparable
same,elevation of luciferase activity,[2],approximately two-fold
same,TS protein level by Western blotting,[1],elevated TS protein levels
"O=c1[nH]c(=O)n([C@@H]2O[C@H](CO)[C@@H](O)[C@H]2O)cc1F [FUrd, 5-fluorouridine]",concentration at which the increase in RLU output plateaued,"[2]; H630-C6 cells, 18 hr exposure",2.5 µM
same,mobility of TS in SDS-PAGE / Western blot,[1],altered the mobility of TS
CCCCCC(=O)N[C@H]1CCOC1=O [1-hexanoyl compound],"activity in down-regulating TS relative to the racemic mixture (d, 1)",[3],twice as active
same,"activity of the enantiomers, concluded from the comparison with the racemic mixture",[3],active
"Nc1ncn([C@@H]2O[C@H](CO)[C@@H](O)[C@H]2O)c(=O)n1 [AC, 5-azacytidine]","change in luciferase activity (RLU), in words","[2]; H630-C6 cells, 18 hr exposure",no increase
same,TS protein level by Western blotting,[1],did not alter TS protein levels
"Cc1nc2ccc(CN(C)c3ccc(C(=O)N[C@@H](CCC(=O)O)C(=O)O)s3)cc2c(=O)[nH]1 [ZD1694, Raltitrexed]",elevation of luciferase activity,"[2]; 100 μM, H630-C6 cells, 18 hr",approximately two-fold
same,"change in luciferase activity (RLU), in words","[2]; H630-C6 cells, 18 hr exposure",increases in luciferase that were comparable
"Nc1nc2c([nH]c(=S)n2[C@@H]2O[C@H](CO)[C@@H](O)[C@H]2O)c(=O)[nH]1 [TG, 8-thioguanosine]","change in luciferase activity (RLU), in words","[2]; H630-C6 cells, 18 hr exposure",no increase
same,TS protein level by Western blotting,[1],did not alter TS protein levels
"CCCCCC(=O)NC1CCOC1=O (single isomer, unassigned) [d-enantiomer]","activity of the enantiomers, concluded from the comparison with the racemic mixture",[3],inactive
"O=c1[nH]cc(F)c(=O)[nH]1 [5-FU, 5-Fluorouracil]",lowest concentration at which changes in RLU can be detected,"[4]; RKO clones, Table 1",0.1 µM
same,"% C (effect relative to control without 5-FU), RKO clone 1",[4]; [5-FU] 0.1 μM,117%
same,"% C (effect relative to control without 5-FU), RKO clone 4",[4]; [5-FU] 0.1 μM,121%
same,"% C (effect relative to control without 5-FU), RKO clone 7",[4]; [5-FU] 0.1 μM,120%
same,RLU RKO clone 1,[4]; [5-FU] 0.1 μM,1137 RLU
same,RLU RKO clone 4,[4]; [5-FU] 0.1 μM,1078 RLU
same,RLU RKO clone 7,[4]; [5-FU] 0.1 μM,799 RLU
same,"% C (effect relative to control without 5-FU), RKO clone 1",[4]; [5-FU] 0.5 μM,135%
same,"% C (effect relative to control without 5-FU), RKO clone 4",[4]; [5-FU] 0.5 μM,112%
same,"% C (effect relative to control without 5-FU), RKO clone 7",[4]; [5-FU] 0.5 μM,157%
same,RLU RKO clone 1,[4]; [5-FU] 0.5 μM,1314 RLU
same,RLU RKO clone 4,[4]; [5-FU] 0.5 μM,999 RLU
same,RLU RKO clone 7,[4]; [5-FU] 0.5 μM,1043 RLU
same,"% C (effect relative to control without 5-FU), RKO clone 1",[4]; [5-FU] 2.0 μM,140%
same,"% C (effect relative to control without 5-FU), RKO clone 4",[4]; [5-FU] 2.0 μM,137%
same,"% C (effect relative to control without 5-FU), RKO clone 7",[4]; [5-FU] 2.0 μM,168%
same,RLU RKO clone 1,[4]; [5-FU] 2.0 μM,1356 RLU
same,RLU RKO clone 4,[4]; [5-FU] 2.0 μM,1214 RLU
same,RLU RKO clone 7,[4]; [5-FU] 2.0 μM,1119 RLU
same,"% C (effect relative to control without 5-FU), RKO clone 1",[4]; [5-FU] 10 μM,179%
same,"% C (effect relative to control without 5-FU), RKO clone 4",[4]; [5-FU] 10 μM,172%
same,"% C (effect relative to control without 5-FU), RKO clone 7",[4]; [5-FU] 10 μM,243%
same,RLU RKO clone 1,[4]; [5-FU] 10 μM,1738 RLU
same,RLU RKO clone 4,[4]; [5-FU] 10 μM,1527 RLU
same,RLU RKO clone 7,[4]; [5-FU] 10 μM,1614 RLU
same,"% C (effect relative to control without 5-FU), RKO clone 1",[4]; [5-FU] 50 μM,148%
same,"% C (effect relative to control without 5-FU), RKO clone 4",[4]; [5-FU] 50 μM,175%
same,"% C (effect relative to control without 5-FU), RKO clone 7",[4]; [5-FU] 50 μM,156%
same,RLU RKO clone 1,[4]; [5-FU] 50 μM,1438 RLU
same,RLU RKO clone 4,[4]; [5-FU] 50 μM,1559 RLU
same,RLU RKO clone 7,[4]; [5-FU] 50 μM,1560 RLU
same,concentration at which the increase in RLU output plateaued,"[2]; H630-C6 cells, 18 hr exposure",50 µM
same,increase in the RLU compared with untreated transfectants,[5],33±13.8%
same,mobility of TS in SDS-PAGE / Western blot,[1],altered the mobility of TS
"O=c1[nH]c(=O)n([C@H]2C[C@H](O)[C@@H](CO)O2)cc1C(F)(F)F [TFT, trifluorothymidine]",concentration at which the increase in RLU output plateaued,"[2]; H630-C6 cells, 18 hr exposure",0.1 µM
"O=c1[nH]c(=O)n([C@H]2C[C@H](O)[C@@H](CO)O2)cc1F [FUdR, 5-fluoro-2′-deoxyuridine]",concentration at which the increase in RLU output plateaued,"[2]; H630-C6 cells, 18 hr exposure",0.005 µM
same,mobility of TS in SDS-PAGE / Western blot,[1],altered the mobility of TS

# Source: patent publication US20040161781A1, “Compositions and methods for identifying thymidylate synthase modulators” (priority 2002, published 2004)
